Structures can show the parent of a compound that is named as a salt.
Row | melting point [°C] | SMILES
1 | 180 | CSc1ccccc1OC[C@@H](O)CN1CCC2(CC1)OCc1c2ccc2c1OCCO2 (as salt: oxalate)
2 | 198 to 200 | O[C@H](COc1ccccc1C1CCCC1)CN1CCC2(CC1)OCc1c2ccc2c1OCCO2 (as salt: oxalate)
3 | 169 to 171 | O[C@H](COc1ccccc1C1CCCC1)CN1CCC2(CC1)OCc1c2ccc2c1OCCCO2 (as salt: oxalate)
